Marks after values point to notes of the source that are not given here.
Experiments:
Design in all cases: species or system Sprague–Dawley rats
Settings in all cases: rat, in vivo
[1] = OLINDA/EXM predicted clinical doses: adult female phantom, non-normalised τ, iterative
Method: (§1) PET studies were reconstructed using filtered-back projection (FBP) and Mediso’s iterative Tera-Tomo 3D reconstruction algorithm with the following settings: 4 iterations, 6 subsets, full detector model, normal regularization, spike filter on, voxel size 0.4 mm and 400‒600 keV energy window. PET data were corrected for randoms, scatter and attenuation. Time-activity curves for each source organ, whole-body and remainder of the body were plotted. […] Residence times (τ) were determined for each radiotracer in source organs, whole-body and remaining (any activity assigned to the whole-body but not assigned to a source organ). Each preclinical source organ’s τ was determined by calculating the area under its respective time-activity curve (activity normalised to the percentage maximum injected dose as a function of time) using the trapezoid method. […] From each individual animal, eight dosimetry models were constructed from all possible combinations of image reconstruction method (FBP or iterative), τ (non-normalised or normalised to human organ masses), and sex of phantom (male or female). Supplementary table 10. Predicted clinical absorbed organ doses and whole-body effective doses of PET radiotracers using non-normalised (preclinical) adult female source organ residence times from iterative reconstructions.

[2] = Comparison of predicted doses across the eight dosimetry models and radiotracers
Method: Time-activity curves for each source organ, whole-body and remainder of the body were plotted. […] Residence times (τ) were determined for each radiotracer in source organs, whole-body and remaining (any activity assigned to the whole-body but not assigned to a source organ). Each preclinical source organ’s τ was determined by calculating the area under its respective time-activity curve (activity normalised to the percentage maximum injected dose as a function of time) using the trapezoid method. […] From each individual animal, eight dosimetry models were constructed from all possible combinations of image reconstruction method (FBP or iterative), τ (non-normalised or normalised to human organ masses), and sex of phantom (male or female). All graphs and statistical analyses were generated and performed in GraphPad Prism 5.01 (GraphPad Software Inc., California, USA). One-way ANOVA followed by a Dunnett’s multiple comparison post-hoc test with [^18F]FDG as the control was used to determine which novel radiotracers’ biodistribution and dosimetry differed from [^18F]FDG in the same organs. All statistical tests used α = 0.05 as the measure for statistical significance. Bland–Altman plots were calculated as previously described[33],[34].

[3] = OLINDA/EXM predicted clinical doses: adult male phantom, normalised τ, iterative
Method: as §1, with “table 11.” for “table 10.”, “using normalised” for “using non-normalised (preclinical)”, “adult male” for “adult female”

[4] = OLINDA/EXM predicted clinical doses: adult female phantom, normalised τ, iterative
Method: as §1, with “12.” for “10.”, “normalised” for “non-normalised (preclinical)”

Effective Dose [1]: 7.95E-02 mSv/MBq
Estimated Absorbed Dose of Organ, Adrenals [1]: 1.20E-02 mGy/MBq
Estimated Absorbed Dose of Organ, Brain [1]: 6.80E-03 mGy/MBq
Estimated Absorbed Dose of Organ, Breasts [1]: 7.63E-03 mGy/MBq
Estimated Absorbed Dose of Organ, Gallbladder Wall [1]: 1.27E-02 mGy/MBq
Estimated Absorbed Dose of Organ, Heart Wall [1]: 3.36E-02 mGy/MBq
Estimated Absorbed Dose of Organ, Kidneys [1]: 3.95E-02 mGy/MBq
Estimated Absorbed Dose of Organ, LLI Wall [1]: 2.13E-01 ‡ mGy/MBq
Estimated Absorbed Dose of Organ, Liver [1]: 1.20E-02 mGy/MBq
Estimated Absorbed Dose of Organ, Lungs [1]: 8.85E-03 mGy/MBq
Estimated Absorbed Dose of Organ, Muscle [1]: 1.42E-02 mGy/MBq
Estimated Absorbed Dose of Organ, Osteogenic Cells [1]: 1.64E-02 mGy/MBq
Estimated Absorbed Dose of Organ, Ovaries [1]: 4.21E-02 mGy/MBq
Estimated Absorbed Dose of Organ, Pancreas [1]: 1.23E-02 mGy/MBq
Estimated Absorbed Dose of Organ, Red Marrow [1]: 1.35E-02 mGy/MBq
Estimated Absorbed Dose of Organ, Skin [1]: 8.59E-03 mGy/MBq
Estimated Absorbed Dose of Organ, Small Intestine [1]: 2.39E-02 mGy/MBq
Estimated Absorbed Dose of Organ, Spleen [1]: 1.16E-02 mGy/MBq
Estimated Absorbed Dose of Organ, Stomach Wall [1]: 1.21E-02 mGy/MBq
Estimated Absorbed Dose of Organ, Thymus [1]: 9.63E-03 mGy/MBq
Estimated Absorbed Dose of Organ, Thyroid [1]: 8.07E-03 mGy/MBq
Estimated Absorbed Dose of Organ, ULI Wall [1]: 1.93E-02 mGy/MBq
Estimated Absorbed Dose of Organ, Urinary Bladder Wall [1]: 7.75E-01 † mGy/MBq
Estimated Absorbed Dose of Organ, Uterus [1]: 5.40E-02 § mGy/MBq
Estimated Absorbed Dose, Total Body [1]: 1.49E-02 mGy/MBq
Effective Dose [3]: 2.46E-02 mSv/MBq
Estimated Absorbed Dose of Organ, Adrenals [3]: 9.55E-03 mGy/MBq
Estimated Absorbed Dose of Organ, Brain [3]: 1.47E-02 mGy/MBq
Estimated Absorbed Dose of Organ, Breasts [3]: 6.86E-03 mGy/MBq
Estimated Absorbed Dose of Organ, Gallbladder Wall [3]: 9.38E-03 mGy/MBq
Estimated Absorbed Dose of Organ, Heart Wall [3]: 8.18E-02 ‡ mGy/MBq
Estimated Absorbed Dose of Organ, Kidneys [3]: 2.30E-02 mGy/MBq
Estimated Absorbed Dose of Organ, LLI Wall [3]: 7.18E-02 § mGy/MBq
Estimated Absorbed Dose of Organ, Liver [3]: 9.11E-03 mGy/MBq
Estimated Absorbed Dose of Organ, Lungs [3]: 1.46E-02 mGy/MBq
Estimated Absorbed Dose of Organ, Muscle [3]: 8.37E-03 mGy/MBq
Estimated Absorbed Dose of Organ, Osteogenic Cells [3]: 1.16E-02 mGy/MBq
Estimated Absorbed Dose of Organ, Pancreas [3]: 1.00E-02 mGy/MBq
Estimated Absorbed Dose of Organ, Red Marrow [3]: 8.31E-03 mGy/MBq
Estimated Absorbed Dose of Organ, Skin [3]: 5.99E-03 mGy/MBq
Estimated Absorbed Dose of Organ, Small Intestine [3]: 1.15E-02 mGy/MBq
Estimated Absorbed Dose of Organ, Spleen [3]: 8.72E-03 mGy/MBq
Estimated Absorbed Dose of Organ, Stomach Wall [3]: 9.21E-03 mGy/MBq
Estimated Absorbed Dose of Organ, Testes [3]: 9.57E-03 mGy/MBq
Estimated Absorbed Dose of Organ, Thymus [3]: 9.60E-03 mGy/MBq
Estimated Absorbed Dose of Organ, Thyroid [3]: 7.39E-03 mGy/MBq
Estimated Absorbed Dose of Organ, ULI Wall [3]: 1.01E-02 mGy/MBq
Estimated Absorbed Dose of Organ, Urinary Bladder Wall [3]: 1.43E-01 † mGy/MBq
Estimated Absorbed Dose, Total Body [3]: 9.30E-03 mGy/MBq
Effective Dose [4]: 1.15E-02 mSv/MBq
Estimated Absorbed Dose of Organ, Brain [4]: 1.19E-02 mGy/MBq
Estimated Absorbed Dose of Organ, Breasts [4]: 1.84E-02 mGy/MBq
Estimated Absorbed Dose of Organ, Gallbladder Wall [4]: 8.62E-03 mGy/MBq
Estimated Absorbed Dose of Organ, Heart Wall [4]: 1.28E-02 mGy/MBq
Estimated Absorbed Dose of Organ, Kidneys [4]: 9.59E-02 ‡ mGy/MBq
Estimated Absorbed Dose of Organ, LLI Wall [4]: 1.11E-02 mGy/MBq
Estimated Absorbed Dose of Organ, Liver [4]: 2.72E-02 mGy/MBq
Estimated Absorbed Dose of Organ, Lungs [4]: 1.15E-02 mGy/MBq
Estimated Absorbed Dose of Organ, Muscle [4]: 1.79E-02 mGy/MBq
Estimated Absorbed Dose of Organ, Osteogenic Cells [4]: 1.02E-02 mGy/MBq
Estimated Absorbed Dose of Organ, Ovaries [4]: 1.03E-02 mGy/MBq
Estimated Absorbed Dose of Organ, Pancreas [4]: 1.95E-02 mGy/MBq
Estimated Absorbed Dose of Organ, Red Marrow [4]: 1.23E-02 mGy/MBq
Estimated Absorbed Dose of Organ, Skin [4]: 1.51E-02 mGy/MBq
Estimated Absorbed Dose of Organ, Small Intestine [4]: 8.33E-02 § mGy/MBq
Estimated Absorbed Dose of Organ, Spleen [4]: 7.40E-03 mGy/MBq
Estimated Absorbed Dose of Organ, Stomach Wall [4]: 1.38E-02 mGy/MBq
Estimated Absorbed Dose of Organ, Thymus [4]: 1.10E-02 mGy/MBq
Estimated Absorbed Dose of Organ, Thyroid [4]: 1.16E-02 mGy/MBq
Estimated Absorbed Dose of Organ, ULI Wall [4]: 1.15E-02 mGy/MBq
Estimated Absorbed Dose of Organ, Urinary Bladder Wall [4]: 8.48E-03 mGy/MBq
Estimated Absorbed Dose of Organ, Uterus [4]: 1.93E-01 † mGy/MBq
Estimated Absorbed Dose, Total Body [4]: 2.12E-02 mGy/MBq
Structure (SMILES): O=C[C@H]([18F])[C@@H](O)[C@H](O)[C@H](O)CO [FDG, 2-deoxy-2-[^18F]fluoro-D-glucose]
organs predicted to receive the highest absorbed doses (ranking) [2]: the urinary bladder, followed by the lower large intestinal (LLI) wall and kidneys
